Assay results from ChEMBL document CHEMBL3885861, “Open TG-GATES”.
Counter-ions that a name gives are not always drawn.

Species: Rattus norvegicus
Experiment: Open TG-GATES - Regimen: Single
Format: toxicity, organism-based, Sprague-Dawley
Set-up: regimen Single, gender Male, age 6 weeks
Conditions: in vivo, ip, 0 mg/kg, route intraperitoneal injection, dose level Control; for APTT / Bas / Eos / Fbg / Hb / Ht / Lym / MCH / MCHC / MCV / Mono / Neu / PT / Plat / RBC / Ret / WBC: tissue Blood; for KIDNEY_L / KIDNEY_R / KIDNEY_TOTAL: tissue Kidney; for LIVER: tissue Liver; for A/G / ALP / ALT / AST / BUN / CRE / Ca / Cl / DBIL / GLC / IP / K / LDH / Na / PL / RALB / TBIL / TC / TG / TP / gamma-GTP: tissue Plasma

Work on CCOC(=O)/C=C\C(=O)OCC [DIETHYL MALEATE] yielded a TERMINAL_BW (3 h) of 198.9 g, an APTT (3 h) of 16.4 s and a Bas (3 h) of 0%. The Eos (3 h) was 0.6%, the Fbg (3 h) was 209.8 mg/dL and the Hb (3 h) was 13 g/dL. The Ht (3 h) was 39.1%, the Lym (3 h) was 69.8% and the MCH (3 h) was 21.2 pg. It also gave an MCHC (3 h) of 33.4%, an MCV (3 h) of 63.6 fL and a Mono (3 h) of 7%. The Neu (3 h) was 22.8%, the PT (3 h) was 12.3 s and the Plat (3 h) was 114.7 x10_4/uL. For the same compound, the RBC (3 h) was 615.6 x10_4/ul, the Ret (3 h) was 10.1% and the WBC (3 h) was 113.4 x10_2/uL. It also gave a KIDNEY_L (3 h) of 0.9 g, a KIDNEY_R (3 h) of 0.9 g and a KIDNEY_TOTAL (3 h) of 1.8 g. For the same compound, the LIVER (3 h) was 9.2 g, the A/G (3 h) was 2 and the ALP (3 h) was 732.6 IU/L. For the same compound, the ALT (3 h) was 39.8 IU/L, the AST (3 h) was 78.2 IU/L and the BUN (3 h) was 14.6 mg/dL. For the same compound, the CRE (3 h) was 0.5 mg/dL, the Ca (3 h) was 11.2 mg/dL and the Cl (3 h) was 106 meq/L. For the same compound, the DBIL (3 h) was 0.028 mg/dL, the GLC (3 h) was 187 mg/dL and the IP (3 h) was 10.1 mg/dL. The K (3 h) was 5.2 meq/L, the LDH (3 h) was 80.6 IU/L and the Na (3 h) was 140.4 meq/L. The PL (3 h) was 137.4 mg/dL, the RALB (3 h) was 3.6 g/dL and the TBIL (3 h) was 0.3 mg/dL. It also gave a TC (3 h) of 79.6 mg/dL, a TG (3 h) of 38 mg/dL and a TP (3 h) of 5.4 g/dL. For the same compound, the gamma-GTP (3 h) was 1 IU/L, the TERMINAL_BW (6 h) was 197.4 g and the APTT (6 h) was 16.4 s. The Bas (6 h) was 0%, the Eos (6 h) was 1% and the Fbg (6 h) was 219.8 mg/dL. For the same compound, the Hb (6 h) was 13.4 g/dL, the Ht (6 h) was 40.3% and the Lym (6 h) was 67%. It also gave an MCH (6 h) of 21.6 pg, an MCHC (6 h) of 33.3% and an MCV (6 h) of 64.8 fL. The Mono (6 h) was 7.4%, the Neu (6 h) was 24.6% and the PT (6 h) was 12 s. It also gave a Plat (6 h) of 118.6 x10_4/uL, an RBC (6 h) of 621.6 x10_4/ul and a Ret (6 h) of 8.9%. It also gave a WBC (6 h) of 102 x10_2/uL, a KIDNEY_L (6 h) of 0.8 g and a KIDNEY_R (6 h) of 0.9 g. It also gave a KIDNEY_TOTAL (6 h) of 1.7 g, an LIVER (6 h) of 8.3 g and an A/G (6 h) of 1.8. For the same compound, the ALP (6 h) was 838.6 IU/L, the ALT (6 h) was 35.2 IU/L and the AST (6 h) was 67 IU/L. The BUN (6 h) was 14 mg/dL, the CRE (6 h) was 0.4 mg/dL and the Ca (6 h) was 10.6 mg/dL. It also gave a Cl (6 h) of 106.6 meq/L, a DBIL (6 h) of 0.018 mg/dL and a GLC (6 h) of 191 mg/dL. It also gave an IP (6 h) of 10.4 mg/dL, a K (6 h) of 5.2 meq/L and an LDH (6 h) of 70.4 IU/L. It also gave a Na (6 h) of 139.8 meq/L, a PL (6 h) of 142.6 mg/dL and an RALB (6 h) of 3.4 g/dL. It also gave a TBIL (6 h) of 0.4 mg/dL, a TC (6 h) of 84.2 mg/dL and a TG (6 h) of 51.2 mg/dL. For the same compound, the TP (6 h) was 5.3 g/dL, the gamma-GTP (6 h) was 1.6 IU/L and the TERMINAL_BW (9 h) was 194.7 g. It also gave an APTT (9 h) of 16.6 s, a Bas (9 h) of 0% and an Eos (9 h) of 0.6%. The Fbg (9 h) was 228.4 mg/dL, the Hb (9 h) was 12.7 g/dL and the Ht (9 h) was 38%. It also gave a Lym (9 h) of 73.8%, an MCH (9 h) of 21.7 pg and an MCHC (9 h) of 33.3%. It also gave an MCV (9 h) of 65 fL, a Mono (9 h) of 3% and a Neu (9 h) of 22.6%. The PT (9 h) was 11.9 s, the Plat (9 h) was 117 x10_4/uL and the RBC (9 h) was 585.2 x10_4/ul. The Ret (9 h) was 9.9%, the WBC (9 h) was 101.3 x10_2/uL and the KIDNEY_L (9 h) was 0.9 g. The KIDNEY_R (9 h) was 0.9 g, the KIDNEY_TOTAL (9 h) was 1.8 g and the LIVER (9 h) was 7.9 g. The A/G (9 h) was 2.2, the ALP (9 h) was 605 IU/L and the ALT (9 h) was 29.6 IU/L. For the same compound, the AST (9 h) was 66.4 IU/L, the BUN (9 h) was 11.8 mg/dL and the CRE (9 h) was 0.5 mg/dL. The Ca (9 h) was 10.6 mg/dL, the Cl (9 h) was 106.8 meq/L and the DBIL (9 h) was 0.036 mg/dL. The GLC (9 h) was 191.8 mg/dL, the IP (9 h) was 10.3 mg/dL and the K (9 h) was 5 meq/L. It also gave an LDH (9 h) of 59 IU/L, a Na (9 h) of 138 meq/L and a PL (9 h) of 133.2 mg/dL. The RALB (9 h) was 3.6 g/dL, the TBIL (9 h) was 0.4 mg/dL and the TC (9 h) was 76.8 mg/dL. It also gave a TG (9 h) of 40.4 mg/dL, a TP (9 h) of 5.3 g/dL and a gamma-GTP (9 h) of 2.4 IU/L. The TERMINAL_BW (24 h) was 212.9 g, the APTT (24 h) was 16 s and the Bas (24 h) was 0%. The Eos (24 h) was 0.4%, the Fbg (24 h) was 226.8 mg/dL and the Hb (24 h) was 12.9 g/dL. The Ht (24 h) was 38.4%, the Lym (24 h) was 79.8% and the MCH (24 h) was 21.8 pg. It also gave an MCHC (24 h) of 33.7%, an MCV (24 h) of 65 fL and a Mono (24 h) of 4.6%. It also gave a Neu (24 h) of 15%, a PT (24 h) of 11.7 s and a Plat (24 h) of 121.2 x10_4/uL. For the same compound, the RBC (24 h) was 590.8 x10_4/ul, the Ret (24 h) was 9.5% and the WBC (24 h) was 106.7 x10_2/uL. It also gave a KIDNEY_L (24 h) of 0.9 g, a KIDNEY_R (24 h) of 0.9 g and a KIDNEY_TOTAL (24 h) of 1.8 g. It also gave an LIVER (24 h) of 10.1 g, an A/G (24 h) of 2.2 and an ALP (24 h) of 864.6 IU/L. For the same compound, the ALT (24 h) was 34.8 IU/L, the AST (24 h) was 66.8 IU/L and the BUN (24 h) was 20.4 mg/dL. For the same compound, the CRE (24 h) was 0.5 mg/dL, the Ca (24 h) was 10.8 mg/dL and the Cl (24 h) was 106 meq/L. For the same compound, the DBIL (24 h) was 0.018 mg/dL, the GLC (24 h) was 202.2 mg/dL and the IP (24 h) was 8.6 mg/dL. For the same compound, the K (24 h) was 4.9 meq/L, the LDH (24 h) was 93.4 IU/L and the Na (24 h) was 140 meq/L. For the same compound, the PL (24 h) was 143.2 mg/dL, the RALB (24 h) was 3.8 g/dL and the TBIL (24 h) was 0.3 mg/dL. It also gave a TC (24 h) of 77.2 mg/dL, a TG (24 h) of 93.6 mg/dL and a TP (24 h) of 5.5 g/dL. It also gave a gamma-GTP (24 h) of 2.2 IU/L.
